Assay results from US20200085784A1, “METHODS TO TREAT FIBROSIS, NASH, AND NAFLD” (Minneamrita Therapeutics, LLC, priority 2018, published 2020).
Counter-ions that a name gives are not always drawn.

Tests used:
[1] = tested on: DEN+CCl4-induced liver fibrosis; test: Mouse model of CCl4+Diethylnitrosamine (DEN)-induced liver injury; type: in vivo, C57Bl6/J mice; details: for DEN+CCl4-induced collagen deposition (Massons Trichrome and Sirius red staining): Minnelide 0.2 mg/kg, compared to the vehicle
Procedure: Mouse model of CCl4+Diethylnitrosamine (DEN)-induced liver injury. C57Bl6/J mice (3 weeks of age; ˜15 g) received one single dose of DEN (25 mg/kg). From 8 weeks of age; (˜25 g) they receive twice a week during 4 weeks 250 μL i.p. of either olive oil or CCl4 at a dose of 0.2 ml/kg diluted in olive oil. Animals were treated with 0.2 mg/kg Minnelide after 4 weeks of CCl4.
(§1) For both models, injury and fibrosis were determined by examination of histological specimens by H&E staining as well as picrosirius red staining.

DIO-NASH mouse model = test: Diet-induced obese (DIO) mouse model of non-alcoholic steatohepatitis (NASH); type: in vivo, C57BL/6JRj mice; details: Minnelide 0.1 mg/kg PO QD, 8 weeks; compared to vehicle treated control DIO-NASH mice
Description: To investigate the effect of 8 weeks of treatment with Minnelide alone and in combination with Elafibranor or Liraglutide in DIO-NASH mouse model, metabolic parameters, hepatic pathology and NAFLD Activity Score (NAS) including Fibrosis Stage data were collected.
Male […] mice were obtained from Janvier Labs (Le Genest Saint Isle, France). Mice had ad libitum access to tap water and either regular rodent chow (Altromin 1324, Brogaarden, Hoersholm, Denmark), or a diet high in fat (40%, containing 18% trans-fat), 40% carbohydrates (20% fructose) and 2% cholesterol (AMLN diet; D09100301, Research Diets, New Brunswick, N.J.). C57BL/6JRj mice were fed regular chow as lean chow vehicle control group or AMLN diet as DIO-NASH mice for 35 weeks prior to treatment start.
All animals included in the drug treatment experiments underwent liver biopsy for baseline characterization of hepatic parameters and stratified randomization into treatment groups. Mice are anesthetized by inhalation anesthesia using isoflurane (2-3%). […] A stratified randomization into treatment groups is performed according to liver Collagen 1a1 quantification. […]
Biochemical and histological analyses were performed as reported previously (Tølbøl, et al. World J Gastroenterol. Jan. 14, 2018; 24(2): 179-194). […] Liver homogenates were analyzed for TG and TC. […]

[2] = tested on: CCl4-induced liver fibrosis; test: Mouse model of carbon tetrachloride (CCl4) liver fibrosis; type: in vivo, C57Bl6/J mice
Procedure: Two animal models were used: Mouse model of Carbon tetrachloride (CCl4). In this model, C57Bl6/J mice (8 weeks of age; ˜25 g) received twice a week during 4 weeks 250 μL i.p. of either olive oil or CCl4 at a dose of 3.5 ml/kg diluted in olive oil. Animals were treated with 0.2 mg/kg Minnelide after 4 weeks of CCl4.
as §1

[3] = therapeutic intervention, DEN+CCl4 induced liver fibrosis
[4] = therapeutic intervention, CCl4 induced liver fibrosis

CC(C)[C@]12O[C@H]1[C@@H]1O[C@]13[C@]1(O[C@H]1C[C@H]1C4=C(CC[C@@]13C)C(=O)OC4)[C@@H]2OCOP(=O)(O)O [Minnelide, 14-O-phosphonooxymethyltriptolide disodium salt]
expression of Tnf-α, IL6, IL-1β and iNOS (inflammation associated genes) ([1]; 8 week time point): decreased
expression of inflammasome genes (NLRP3, apoptosis-associated speck-like protein containing a CARD, caspase1, IL-1β, IL18) ([1]; 8 week time point): decreased
steatosis, ballooning, and inflammatory foci (liver H&E staining) ([1]; 12 week time point): reduced
steatosis, ballooning, and inflammatory foci (liver H&E staining) ([1]; DEN+CCl4 administration, 8 week time point): reduced
α-SMA expression (immunofluorescence staining) ([1]; DEN+CCl4 model): reduced
DEN+CCl4-induced collagen deposition (Massons Trichrome and Sirius red staining) [1]: inhibited
DEN+CCl4-induced collagen deposition (Massons Trichrome and Sirius red staining) ([1]; 12 week time point paragraph): inhibited
fibrosis [1, 3]: reduction
plasma biochemical markers [1, 3]: reduction
reduction in liver Galectin-3 (% fractional area) (DIO-NASH mouse model): 18.41%
steatosis, ballooning, and inflammatory foci (liver H&E staining) ([2]; CCl4 administration, 8 week time point): reduced
α-SMA expression (immunofluorescence staining) ([2]; CCl4 model): reduced
CCl4-induced collagen deposition (Massons Trichrome and Sirius red staining) ([2]; Minnelide 0.2 mg/kg, compared to the vehicle): inhibited
fibrosis [2, 4]: reduction
plasma biochemical markers [2, 4]: reduction
